{"source": "ChEMBL document CHEMBL1134487", "about": "“Design, synthesis, and biological evaluation of analogues of the antitumor agent, 2-(4-[(7-chloro-2-quinoxalinyl)oxy]phenoxy)propionic acid (XK469)” (2001)", "key": {"Mus musculus [1]": {"test_system": "Mus musculus", "assay": "In vivo activity tested against C3H mice bearing panc-03 murine tumor, measured as cures at 1085 mg/kg (po); 3/5 cures", "format": "functional"}, "Mus musculus [2]": {"test_system": "Mus musculus", "assay": "In vivo activity tested against C3H mice bearing panc-03 murine tumor measured as activity rating at 1085 mg/kg (po)", "format": "functional"}, "Mus musculus [3]": {"test_system": "Mus musculus", "assay": "In vivo activity tested against C3H mice bearing panc-03 murine tumor measured as log Kill value was based on tumors that grew at 1085 mg/kg (po)", "format": "functional, organism-based", "parameters": "dose 1085 mg/kg"}, "Mus musculus [4]": {"test_system": "Mus musculus", "assay": "In vivo activity tested against C3H mice bearing panc-03 murine tumor measured as % treated/control calculated at 1085 mg/kg (po)", "format": "functional"}, "Mus musculus [5]": {"test_system": "Mus musculus", "assay": "In vivo activity tested against C3H mice bearing panc-03 murine tumor measured as body weight loss at 1085 mg/kg (po)", "format": "functional"}, "Mus musculus [6]": {"test_system": "Mus musculus", "assay": "In vivo activity tested against C3H mice bearing panc-03 murine tumor at a dose of 330 mg/kg, measured as activity rating at 330 mg/kg iv dose", "format": "functional"}, "Mus musculus [7]": {"test_system": "Mus musculus", "assay": "In vivo activity tested against C3H mice bearing panc-03 murine tumor at a dose of 330mg/kg, measured as % treated/control", "format": "functional"}, "Mus musculus [8]": {"test_system": "Mus musculus", "assay": "In vivo activity tested against C3H mice bearing panc-03 murine tumor measured as % treated/control calculated at 1320 mg/kg (po)", "format": "functional"}, "Mus musculus [9]": {"test_system": "Mus musculus", "assay": "In vivo activity tested against C3H mice bearing panc-03 murine tumor measured as body weight loss at 1320 mg/kg (po)", "format": "functional"}, "Mus musculus [10]": {"test_system": "Mus musculus", "assay": "In vivo activity tested against C3H mice bearing panc-03 murine tumor measured as log Kill value was based on tumors that grew at 1320 mg/kg (po)", "format": "functional, organism-based", "parameters": "dose 1320 mg/kg"}, "Mus musculus [11]": {"test_system": "Mus musculus", "assay": "In vivo activity tested against C3H mice bearing colon adenocarcinoma -38(colon-38) tumor measured as activity rating at 2770 mg/kg (po)", "format": "functional"}, "Mus musculus [12]": {"test_system": "Mus musculus", "assay": "In vivo activity tested against C3H mice bearing colon adenocarcinoma -38(colon-38) tumor measured as % treated/control calculated at 2770 mg/kg (po)", "format": "functional"}, "Mus musculus [13]": {"test_system": "Mus musculus", "assay": "In vivo activity tested against C3H mice bearing colon adenocarcinoma -38(colon-38) tumor measured as body weight loss at 2770 mg/kg (po)", "format": "functional"}, "Mus musculus [14]": {"test_system": "Mus musculus", "assay": "In vivo activity tested against C3H mice bearing colon adenocarcinoma -38(colon-38) tumor measured as log Kill value was based on tumors that grew at 2770 mg/kg (po); None", "format": "functional, organism-based", "parameters": "dose 2770 mg/kg"}, "Mus musculus [15]": {"test_system": "Mus musculus", "assay": "In vivo activity tested against C3H mice bearing colon adenocarcinoma -38(colon-38) tumor measured as log Kill value was based on tumors that grew at 769 mg/kg (po)", "format": "functional, organism-based", "parameters": "dose 769 mg/kg"}, "Mus musculus [16]": {"test_system": "Mus musculus", "assay": "In vivo activity tested against C3H mice bearing colon adenocarcinoma -38(colon-38) tumor measured as body weight loss at 769 mg/kg (po)", "format": "functional"}, "Mus musculus [17]": {"test_system": "Mus musculus", "assay": "In vivo activity tested against C3H mice bearing colon adenocarcinoma -38(colon-38) tumor measured as % treated/control calculated at 769 mg/kg (po)", "format": "functional"}, "Mus musculus [18]": {"test_system": "Mus musculus", "assay": "In vivo activity tested against C3H mice bearing colon adenocarcinoma -38(colon-38) tumor measured as activity rating at 769 mg/kg (po)", "format": "functional"}, "Mus musculus [19]": {"test_system": "Mus musculus", "assay": "In vivo activity tested against C3H mice bearing colon adenocarcinoma -38(colon-38) tumor measured as % treated/control calculated at 495 mg/kg (po)", "format": "functional"}, "Mus musculus [20]": {"test_system": "Mus musculus", "assay": "In vivo activity tested against C3H mice bearing colon adenocarcinoma -38(colon-38) tumor measured as body weight loss at 495 mg/kg (po)", "format": "functional"}, "Mus musculus [21]": {"test_system": "Mus musculus", "assay": "In vivo activity tested against C3H mice bearing colon adenocarcinoma -38(colon-38) tumor measured as log Kill value was based on tumors that grew at 495 mg/kg (po)", "format": "functional, organism-based", "parameters": "dose 495 mg/kg"}, "Mus musculus [22]": {"test_system": "Mus musculus", "assay": "In vivo activity tested against C3H mice bearing colon adenocarcinoma -38(colon-38) tumor measured as activity rating at 495 mg/kg (po)", "format": "functional"}, "Mus musculus [23]": {"test_system": "Mus musculus", "assay": "In vivo activity tested against C3H mice bearing colon adenocarcinoma -38(colon-38) tumor, measured as cures at 495 mg/kg (po); 3/5 cures", "format": "functional"}}, "note": "The source made the active and inactive calls. The calls are words filed in the database; no cut-off is given here."}
{"compound": "CC(Oc1ccc(Oc2cnc3ccc(F)cc3n2)cc1)C(=O)O", "note": "(stereo not drawn)", "values": [{"measurement": "Cures", "setting": "Mus musculus [1]", "result": 3}, {"measurement": "Activity rating", "setting": "Mus musculus [2]", "result": ">2.8"}, {"measurement": "Log kill", "setting": "Mus musculus [3]", "result": 3.7}, {"measurement": "T/C", "setting": "Mus musculus [4]", "result": 0, "unit": "%"}, {"measurement": "Body weight loss", "setting": "Mus musculus [5]", "result": -13, "unit": "%"}]}
{"compound": "CC(Nc1ccc(Oc2cnc3ccc(Cl)cc3n2)cc1)C(=O)O", "note": "(stereo not drawn)", "values": [{"measurement": "Activity rating", "setting": "Mus musculus [6]", "result": ">2.8"}, {"measurement": "T/C", "setting": "Mus musculus [7]", "result": 100, "unit": "%"}]}
{"compound": "CC(Oc1ccc(Oc2cnc3ccc(Cl)cc3n2)cc1)C(N)=O", "note": "(stereo not drawn)", "values": [{"measurement": "T/C", "setting": "Mus musculus [8]", "result": 7.3}, {"measurement": "Body weight loss", "setting": "Mus musculus [9]", "result": -3.6, "unit": "%"}, {"measurement": "Log kill", "setting": "Mus musculus [10]", "result": 1.9}]}
{"compound": "COC(=O)C(C)Oc1ccc(Oc2cnc3cc(Cl)ccc3n2)cc1", "note": "(stereo not drawn)", "values": [{"measurement": "Activity rating", "setting": "Mus musculus [11]", "result": "<0.7"}, {"measurement": "T/C", "setting": "Mus musculus [12]", "result": ">100", "unit": "%"}, {"measurement": "Body weight loss", "setting": "Mus musculus [13]", "result": 0, "unit": "%"}, {"measurement": "Log kill", "setting": "Mus musculus [14]", "result": "inactive"}]}
{"compound": "CC(Oc1ccc(Oc2cnc3cc(F)ccc3n2)cc1)C(=O)O", "note": "(stereo not drawn)", "values": [{"measurement": "Log kill", "setting": "Mus musculus [15]", "result": 0.9}, {"measurement": "Body weight loss", "setting": "Mus musculus [16]", "result": 1, "unit": "%"}, {"measurement": "T/C", "setting": "Mus musculus [17]", "result": 34, "unit": "%"}, {"measurement": "Activity rating", "setting": "Mus musculus [18]", "result": 1.2}]}
{"compound": "COC(=O)C(C)Oc1ccc(Oc2cnc3ccc(Cl)cc3n2)cc1", "note": "(stereo not drawn)", "values": [{"measurement": "T/C", "setting": "Mus musculus [19]", "result": 0, "unit": "%"}, {"measurement": "Body weight loss", "setting": "Mus musculus [20]", "result": 0, "unit": "%"}, {"measurement": "Log kill", "setting": "Mus musculus [21]", "result": 3.5}, {"measurement": "Activity rating", "setting": "Mus musculus [22]", "result": ">2.8"}, {"measurement": "Cures", "setting": "Mus musculus [23]", "result": 3}]}
